Experimental data from patent US9585885B2, “Substituted pyrido[2,3-g]quinazolines as dopamine D2 receptor agonists” (KISSEI PHARMACEUTICAL CO., LTD., priority 2012, dated 2017).
Read-outs that look alike come from different tables or passages of the source.

Legend:
[1] = target: T1, human serotonin 5-HT2B receptor (Homo sapiens, UniProt P41595); experiment: Stimulating activities of human serotonin 5-HT2B receptor, intracellular calcium in forced expression HEK293 cells; type: cell-based; details: intracellular calcium concentration, mean value (n=2)
T1 construct: expressed in transfected cells; host or cells: HEK293 (transient transfection)
Method: Identification Test of Stimulating Activities on Human Serotonin 5-HT2B Receptor
Mostly confluent HEK293 cells were washed with PBS, followed by exfoliation with 0.05% trypsin-EDTA and the cells were suspended in D-MEM liquid medium (phenol red-free, low glucose, pyruvic acid were contained) containing fetal bovine serum (final concentration: 10%) and GlutaMax (registered mark) I (final concentration: 2 mM). The suspension was scattered at 5×10^4 cells/100 μL/well on poly-D-lysine-coated 96-well microplate (BD BioCoat (registered mark)). The scattered cells were cultured in 5% CO2 incubator at 37° C. Human serotonin 5-HT2B receptor expression plasmid was transfected in that cells according to the procedure seeing below.
Human serotonin 5-HT2B receptor expression plasmid and Lipofectamine (registered mark) 2000 (Invitrogen) were diluted to 0.008 g/L and 0.016 g/L each other with OPTI-MEM (registered mark) I Reduced-Serum Medium and incubated at room temperature. After incubation, the human serotonin 5-HT2B receptor expression plasmid-diluted liquid and Lipofectamine (registered mark) 2000-diluted liquid were mixed at an equal volume and incubated at room temperature to form a complex. The complex was dispensed at 50 μL/well on the cells prepared above. The cells were incubated in 5% CO2 incubator at 37° C. for 2 days. After incubation, the cells were used as human serotonin 5-HT2B receptor forced expression cells for measurement of intracellular calcium concentration.
The stimulating activities of human serotonin 5-HT2B receptor was determined by measuring of intracellular calcium concentration. The 30 mM dimethyl sulfoxide (DMSO) solution contained test compounds or serotonin hydrochloride (Sigma) as positive control, was diluted with assay buffer ((HBSS), 20 mM HEPES, 1.3 mM calcium chloride, 0.5 mM magnesium chloride and 0.4 mM magnesium sulfate were contained, pH7.4) to appropriate concentration.
The forced expression cells were washed with assay buffer, and 100 μL/well of fluorescent calcium indicator (Fluo-4 NW Calcium Assay Kit) was added and incubated in 5% CO2 incubator at 37° C. After incubation, 50 μL/well of each test compound was added, and the concentration of intracellular calcium was measured as fluorescent signal with FlexStation (registered mark) II (Molecular Devices). The data was analyzed by nonlinear regression and sigmoidal dose-response curve fitting using GraphPad PRISM 4.0, and values of EC50 (concentration of the compound producing half the maximal effect of the compound) were calculated. The data was presented as mean value (n=2).

[2] = target: T2, human dopamine D2 receptor (Homo sapiens, UniProt P14416); experiment: Stimulating activities of human dopamine D2 receptor, [35S]GTPγS binding to hD2R#7 (HEK293) membrane homogenates; type: biochemical
T2 construct: expressed in transfected cells
Method: Identification Test of Stimulating Activities on Human Dopamine D2 Receptor
The cells, which were grown to confluence in 150 mm dishes (IWAKI), were harvested with isotonic buffer (50 mM Tris (Sigma), 2 mM ethylenediamine-tetraacetic acid (Invitrogen), and 125 mM sodium chloride (Wako Pure Chemicals), pH 7.4) and centrifuged at 1880×g and 4° C. for 10 minutes, and the cell pellets were then suspended in isotonic buffer. After being subjected to one cycle of freezing and thawing, the cells were centrifuged at 1880×g and 4° C. for 10 minutes, and the cell pellets were suspended in isotonic buffer. The cells were centrifuged at 1880×g and 4° C. for 10 minutes, and the cell pellets were suspended in isotonic buffer and homogenate buffer (10 mM sodium bicarbonate (Nacalai) and 5 mM ethylenediamine-tetraacetic acid, pH 7.5). The volume ratio of isotonic-to-homogenate buffer was 2. The cells were sonicated and centrifuged at 1880×g and 4° C. for 10 minutes, and the supernatants were ultracentrifuged at 80000×g and 4° C. for 30 minutes. The final cell pellets were suspended in homogenate buffer containing protease inhibitor cocktail (Nacalai) and stored at −80° C. until use. The protein concentration was determined using BCA Protein Assay Kit (Pierce) in accordance with the manufacturer's instructions.
The stimulating activities of human dopamine D2 receptor was determined by measuring the binding potential of [^35S]-guanosine 5′-[gamma-thio]triphosphate ([^35S]GTPγS, PerkinElmer) according to the method described by Newman-Tancredi A. et al. (Naunyn-Schmiedeberg's Arch Pharmacol, 1999, vol. 359, pp. 447-453) with a minor modification. Test compounds and dopamine hydrochloride (Fluka) as positive control were dissolved in dimethyl sulfoxide (CARLBIOCHEM), resulting in 30 mM. The both compounds were diluted with assay buffer (50 mM Tris, 100 mM sodium chloride, 5 mM magnesium chloride (Nacalai), 1 mM ethylenediamine-tetraacetic acid, 1 mM dithiothreitol (Wako Pure Chemicals), 10 μM guanosine diphosphate (Wako Pure Chemicals) and 0.5% bovine serum albumin (Sigma), pH 7.4) to a final concentration of 100 pM (only test compounds), 1 nM, 10 nM, 100 nM, 1 μM, 10 μM and 100 μM (only dopamine hydrochloride). The above membrane homogenates and [^35S]GTPγS were diluted with assay buffer to a final concentration of 0.06 mg/mL and 0.6 nM, respectively. The serial diluted compounds (50 μL), the diluted membrane homogenates (50 μL) and the diluted [^35S]GTPγS (50 μL) were mixed on multi-screen 96-well plate (Millipore) and shaken lightly at room temperature for 60 minutes. The reaction was terminated by vacuum filtration with three times washes of ice-cold wash buffer (50 mM Tris, 100 mM sodium chloride, 5 mM magnesium chloride, and 1 mM ethylenediamine-tetraacetic acid, pH 7.4). After drying the bottoms of the plate at 60° C., MicroScinti-40 (PerkinElmer) (30 μL) was added in the plate. The tops of the plate were sealed by TopSeal-A (PerkinElmer), and the radioactivity was determined in a TopCount NXT (registered mark)(PerkinElmer) after shaking lightly for 5-10 minutes. The data was analyzed by nonlinear regression and sigmoidal dose-response curve fitting using GraphPad PRISM 4.0 (GraphPad Software), and values of EC50 (concentration of the compound producing half the maximal effect of the compound) were calculated. The data was presented as mean value (n=2).

[3] = test system: unilateral 6-hydroxydopamine-lesioned hemi-Parkisonian rats; experiment: Contralateral rotational behavior in unilateral 6-hydroxydopamine-lesioned hemi-parkinsonian rats; type: in vivo, rat; details: orally 10 mg/kg, mean value; for Total number of rotations: contralateral rotations up to 24 hours after administration; for Duration: measured up to 24 hours after administration, duration of rotational response
Method: 6-OHDA was dissolved at 2 mg/mL in a physiolosical saline solution containing 0.2% L-ascorbic acid. Desipramine was dissolved at 10 mg/mL in a physiolosical saline solution in a hot-water bath. Apomorphine was dissolved at 0.1 mg/mL in a physiolosical saline solution. Ropinirole was dissolved in distilled water. Test compounds were dissolved in a solution containing 2% DMA, 100 or 200 mol % hydrochloric acid, and 98% of a 0.5% methyl cellulose solution. […] (Eur J Pharmacol, 2000, vol. 408, P. 249-255) with a minor modification. Male Sprague-Dawley rats (6-weeks-old, Charles River Laboratories Japan Inc.) were anaesthetized with intraperitoneal somnopentyl (45 mg/kg) injection and placed in a stereotaxic frame (Narishige). In order to prevent 6-OHDA-induced damage of noradrenergic neurons, desipramine (25 mg/kg) was intraperitoneally injected 30 minutes before the 6-OHDA injection. After the bregma identification via a middle calvarial incision, the skull was drilled using a dental drill at the site of 6-OHDA injection. The lesion was made by injecting 6-OHDA (8 μg in 4 μL at a speed of 1 μL/minute) unilaterally into the left medial forebrain bundle by using a injection cannula (30 gauge needle) connected to a microsyringe (Hamilton) (the lesion coordinates; A/P −2.5 mm, L/M −1.8 mm, and V/D −8.0 mm, from the bregma point and surface of the skull). The cannula was carefully removed from the animal after keeping placed on the lesion site for 5 minutes. The skull was filled its hole with dental cement, disinfected, and the scalp incision was surgically sutured. Animals recovered from anesthesia were housed as usual until the day of the experiment. Three weeks after the lesion, rats were tested on the basis of their contralateral rotational behavior (single rotation was defined as a 360° turn) in response to 0.1 mg/kg apomorphine given subcutaneously. For behavioral observation, rats were placed in plastic cylinders of a diameter of 30 cm, and its contralateral rotational behaviors were videotaped and quantified by rat-rotation auto counting system R-RACS (Kissei Wellcom). On the experimental day, animals were fasted overnight, and test compounds were orally administrated at doses of 10 mg/kg. The drug potency was measured until up to 24 hours after administration as the number of contralateral rotation. […] Total number of rotations and the duration of the response in experimental period were presented as mean value. As comparative example, ropinirole as non-ergot dopamine D2 receptor agonist, was examined in a similar fashion.

[4] = [35S]GTPγS binding, membrane homogenates, mean value (n=2), read-out: EC50

T1 sequence (P41595 whole entry): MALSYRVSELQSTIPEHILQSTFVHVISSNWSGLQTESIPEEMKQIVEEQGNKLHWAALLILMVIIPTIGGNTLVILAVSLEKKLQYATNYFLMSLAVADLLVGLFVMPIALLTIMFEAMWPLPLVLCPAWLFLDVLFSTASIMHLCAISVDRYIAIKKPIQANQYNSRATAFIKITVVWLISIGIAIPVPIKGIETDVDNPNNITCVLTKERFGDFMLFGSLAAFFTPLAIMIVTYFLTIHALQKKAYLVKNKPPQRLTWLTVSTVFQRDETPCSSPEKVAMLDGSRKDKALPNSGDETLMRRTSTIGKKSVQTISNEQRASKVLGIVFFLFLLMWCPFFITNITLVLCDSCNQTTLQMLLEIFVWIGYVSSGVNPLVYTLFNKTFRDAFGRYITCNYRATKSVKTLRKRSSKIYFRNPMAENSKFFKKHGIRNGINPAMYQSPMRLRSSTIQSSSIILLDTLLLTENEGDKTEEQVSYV
T2 sequence (P14416 whole entry): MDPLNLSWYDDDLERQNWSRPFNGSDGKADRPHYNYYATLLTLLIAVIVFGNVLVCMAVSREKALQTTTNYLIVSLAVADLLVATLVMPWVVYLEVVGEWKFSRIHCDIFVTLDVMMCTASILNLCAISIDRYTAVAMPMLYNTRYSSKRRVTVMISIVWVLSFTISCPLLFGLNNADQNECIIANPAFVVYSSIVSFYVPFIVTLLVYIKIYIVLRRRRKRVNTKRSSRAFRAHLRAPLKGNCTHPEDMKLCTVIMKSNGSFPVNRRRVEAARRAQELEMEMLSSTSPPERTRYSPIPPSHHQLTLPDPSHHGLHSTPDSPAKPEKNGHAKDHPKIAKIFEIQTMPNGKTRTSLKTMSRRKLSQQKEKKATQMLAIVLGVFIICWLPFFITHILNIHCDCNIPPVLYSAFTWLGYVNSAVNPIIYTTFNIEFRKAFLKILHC

EC50 [1] | EC50 [2, 4] | SMILES | Total number of rotations [3] | Duration [3] | EC50 [2]
> 10000 nM | 19 nM | CCCN1C[C@@H](NC(=O)N(C)CCc2ccccc2)C[C@@H]2Cc3nc(N)ncc3C[C@H]21 (relative stereo) [Compound 1-11] | – | – | –
> 10000 nM | 223 nM | CCCN1C[C@@H](NC(=O)N(CCc2ccccc2)CCN(C)C)C[C@@H]2Cc3nc(N)ncc3C[C@H]21 (relative stereo) [Compound 1-23, 3-[(5aR*,8S*,9aR*)-2-amino-6-propyl-5,5a,6,7,8,9,9a,10-octahydropyrido[2,3-g]quinazolin-8-yl]-1-[2-(dimethylamino)ethyl]-1-(2-phenylethyl)urea] | 9184.0 | 870.0 minuets | –
> 10000 nM | 126 nM | CCCN1C[C@@H](NC(=O)N(CC)CCN2CCCCC2)C[C@@H]2Cc3nc(N)ncc3C[C@H]21 (relative stereo) [Compound 1-25, 3-[(5aR*,8S*,9aR*)-2-amino-6-propyl-5,5a,6,7,8,9,9a,10-octahydropyrido[2,3-g]quinazolin-8-yl]-1-ethyl-1-[2-(piperidin-1-yl)ethylurea] | 5025.0 | 621.3 minuets | –
> 10000 nM | 93 nM | CCCN1C[C@@H](NC(=O)N(CC)CCN2CCc3ccccc3C2)C[C@@H]2Cc3nc(N)ncc3C[C@H]21 (relative stereo) [Compound 1-33] | – | – | –
> 10000 nM | 34 nM | CCCN1C[C@@H](NC(=O)N(C)CCc2ccncc2)C[C@@H]2Cc3nc(N)ncc3C[C@H]21 (relative stereo) [Compound 1-36] | – | – | –
> 10000 nM | 10 nM | CCCN1C[C@@H](NC(=O)N2CCc3ccccc3C2)C[C@@H]2Cc3nc(N)ncc3C[C@H]21 (relative stereo) [Compound 1-37] | – | – | –
> 10000 nM | 39 nM | CCCN1C[C@@H](NC(=O)N(C)CCN(C)c2ccccc2)C[C@@H]2Cc3nc(N)ncc3C[C@H]21 (relative stereo) [Compound 1-39] | – | – | –
> 10000 nM | 116 nM | CCCN1C[C@@H](NC(=O)N(CC)CCN(C)CCOC)C[C@@H]2Cc3nc(N)ncc3C[C@H]21 (relative stereo) [Compound 1-41] | – | – | –
– | – | CCCN1C[C@@H](NC(=O)N(CCN(C)C)CC(C)C)C[C@@H]2Cc3nc(N)ncc3C[C@H]21 [Compound 1-3, 3-[(5aR,8S,9aR)-2-amino-6-propyl-5,5a,6,7,8,9,9a,10-octahydropyrido[2,3-g]quinazolin-8-yl]-1-[2-(dimethylamino)ethyl]-1-(2-methylpropyl)urea] | 3610.5 | 387.5 minuets | –
– | – | CCCN1C[C@@H](NC(=O)N(C)C)C[C@@H]2Cc3nc(N)ncc3C[C@H]21 [Compound 1-5] | – | – | 9 nM
– | – | CCCN(CCC)CCc1cccc2c1CC(=O)N2 [Ropinirole, ropinirole, reference compound] | 276.3 | 61.3 minuets | –

SMILES | EC50 [1] | EC50 [2, 4] | Total number of rotations [3] | Duration [3] | EC50 [2]
CCCN1C[C@@H](NC(=O)N(C)CCOC)C[C@@H]2Cc3nc(N)ncc3C[C@H]21 (relative stereo) [Compound 1-12] | > 10000 nM | 43 nM | – | – | –
CCCN1C[C@@H](NC(=O)NC)C[C@@H]2Cc3nc(N)ncc3C[C@H]21 (relative stereo) [Compound 1-13] | > 10000 nM | 161 nM | – | – | –
CCCN1C[C@@H](NC(=O)N(C)C2CC2)C[C@@H]2Cc3nc(N)ncc3C[C@H]21 (relative stereo) [Compound 1-16] | > 10000 nM | 93 nM | – | – | –
CCCN1C[C@@H](NC(=O)N2CCCCC2)C[C@@H]2Cc3nc(N)ncc3C[C@H]21 (relative stereo) [Compound 1-34] | > 10000 nM | 63 nM | – | – | –
CCCN1C[C@@H](CO)C[C@@H]2Cc3nc(N)ncc3C[C@H]21 (relative stereo) [compound 1, [(5aR*,8S*,9aR*)-2-amino-6-propyl-5,5a,6,7,8,9,9a,10-octahydropyrido[2,3-g]quinazolin-8-yl]methanol, reference compound] | – | 2900 nM | – | – | –
CCCN1C[C@@H](NC(=O)N(CC)CCN(C)C)C[C@@H]2Cc3nc(N)ncc3C[C@H]21 [Compound 1-1, 3-[(5aR,8S,9aR)-2-Amino-6-propyl-5,5a,6,7,8,9,9a,10-octahydropyrido[2,3-g]quinazolin-8-yl]-1-[2-(dimethylamino)ethyl]-1-ethylurea] | > 10000 nM | 64 nM | 5038.5 | 541.3 minuets | –
